Data published in patent US20220096508A1, “METHOD OF TREATMENT AND PHARMACEUTICAL DOSAGE FORM” (Aprea Therapeutics AB, priority 2019, published 2022).
Read-outs that look alike come from different tables or passages of the source.

Tested on: TP53 mutant myeloid neoplasms
Text: The study, identified as NCT03072043 on clinicaltrials.gov, is a multi-institution, open-label, phase Ib/II clinical trial conducted in 2 parts: a Phase 1 b part followed by a Simon's two-stage Phase 2 design. The study assesses the safety and efficacy of APR-246 in combination with azacitidine for the treatment of TP53 mutant myeloid neoplasms. All patients were pre-screened by NGS on peripheral blood (PB) or bone marrow (BM) samples to determine TP53 mutational status and therefore eligibility to participate in this study. A PB sample was obtained prior to treatment for NGS by a central laboratory, to evaluate baseline TP53 VAF and for serial analysis.
Treatment was administered on an outpatient basis. No investigational or commercial agents or therapies other than those described were administered with the intent to treat the patient's MDS or MDS/MPN. APR-246 was supplied by Aprea Therapeutics AB. The investigational medicinal product was a concentrate for solution, diluted with sterile 0.9% NaCl solution for infusion before administration. The solution for infusion was prepared with the prescribed dosage for each patient in accordance with the protocol and separate technical instruction.
The initial Phase 1 b part evaluated APR-246 administered with azacitidine. Cohorts of at least 3 evaluable patients were enrolled using a modified 3+3 design. Patients received IV infusions of APR-246 as a lead-in phase on days −14 to −11, starting at Dose Level 1 (see below and in Table 1) prior to starting cycle #1 of combination therapy with azacitidine (see FIG. 1) In all cycles, APR-246 was administered as a 6-hour infusion daily for four consecutive days (study days −14 to −11 of the lead in phase and day 1 to 4 of each combination cycle). • Dose Level 1 (starting dose): APR-246 21.0 mg/kg LBM (for the first 45 min)+29 mg/kg LBM (for 5 h 15 min) on days 1 to 4. • Dose Level 2: APR-246 30.0 mg/kg LBM (for first 45 min)+45.0 mg/kg LBM (for 5 h 15 min) on days 1 to 4. • Dose Level 3: APR-246 37.0 mg/kg LBM (for first 45 min)+63.0 mg/kg LBM (for 5 h 15 min) on days 1 to 4.
Thus, the combination therapy consisted of APR-246 on days 1-4 and azacitidine on days 4-10 of a 28-day cycle. Azacitidine was administered subcutaneously (SC) or intravenously (SC being preferred) at 75 mg/m^2 for 7 days (either for 7 consecutive days (days 4-10) or on 2+5 days (i.e. days 4-5 and 8-12)). Azacitidine was administered on day 4 at the same time as the final infusion of APR-246. Azacitidine was given following the completion of APR-246 infusion. Cohorts of at least 3 evaluable patients were enrolled using a modified 3+3 design. Patients were followed for at least 6 weeks (lead-in phase+cycle 1) before decision to dose escalation in the next cohort following a full safety assessment. The MTD was defined as the dose level below which DLT is manifested in 33% of the patients or at dose level 1 if DLT is manifested in <33% of the patients.
Following completion of the dose finding phase described above, a dose expansion was carried out, whereby patients are treated with APR-246 administered at the MTD with azacitidine on a 28-day cycle with the same dosing schedule as in Phase Ib, with the exception of no lead in phase (i.e. patients will start at day 1 of combination therapy with APR-246 on days 1˜4 and azacitidine on days 4-10 (or days 4-5 and 8-12) of a 28-day cycle as illustrated in FIG. 1), and the exception that the recommended Phase 2 dose was modified from 100 mg/kg LBM to a fixed dose regimen of 4500 mg/patient (i.e. APR-246 administration in 2 consecutive steps as a loading dose (1500 mg for first 45 min) and a maintenance dose (3000 mg for 5 h 15 min)).

[1] = MDS population (n=40), combination with azacitidine
[2] = protocol-defined efficacy evaluable MDS population (n=33), combination with azacitidine

COCC1(CO)C(=O)C2CCN1CC2 (stereo not drawn) [APR-246, 2-hydroxymethyl-2-methoxymethyl-1-azabicyclo [2,2,2] octan-3-one] was tested, and the “patients able to discontinue therapy and proceed to allogeneic SCT” value (MDS patients, combination with azacitidine) was 40%, the CR rate [1] was 50% and the ORR [1] was 73%. The “patients able to discontinue therapy and proceed to allogeneic SCT” value (efficacy evaluable MDS patients, combination with azacitidine) was 48%, the “recommended Phase 2 dose” value (human, in vivo) was 100 mg/kg lean body weight and the “patients who achieved CR, Stage 1” value (of 24 evaluable patients at the MTD, combination with azacitidine) was “More than 6”. For the same compound, the “patients who achieved CR, Stage 2” value (of 45 evaluable patients, combination with azacitidine) was “More than 14”, the CR [2] was 61% and the ORR [2] was 88%.
